17 compounds from patent US12110276B2 (Genentech, Inc., priority 2021, dated 2024) can be followed below.

One assay concerns the target TEAD1 (Homo sapiens (Human), UniProt P28347). Briefly: TR-FRET lipid pocket probe competition assay (Lipid HTRF), TEAD1.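 Note: His-tagged TEAD1 with biotinylated probe, detected via Europium anti-His and XL665 streptavidin, probe displacement lowers TR-FRET signal, IC50 from four-parameter nonlinear fit.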 Type of assay: binding. The conditions noted are these: 4 hours pre-incubation; read-out: Lipid HTRF TEAD1 IC50.
For the next assay, the target named is TEAD3 (Homo sapiens (Human), UniProt Q99594). Briefly: TR-FRET lipid pocket probe competition assay (Lipid HTRF), TEAD3. The conditions noted are these: 4 hours pre-incubation; read-out: Lipid HTRF TEAD3 IC50. Type of assay: binding.
The next assay deals with TEAD4 (Homo sapiens (Human), UniProt Q15561). Briefly: TR-FRET lipid pocket probe competition assay (Lipid HTRF), TEAD4.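 Note: His-tagged TEAD4 with biotinylated lipid-pocket probe, read by Europium anti-His and XL665 streptavidin, where probe displacement lowers the TR-FRET signal, IC50 from a four-parameter fit.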 Type of assay: binding. The conditions noted are these: 4 hours pre-incubation; read-out: Lipid HTRF TEAD4 IC50.
The target of a further assay is TEAD2 (Homo sapiens (Human), UniProt Q15562).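 Note: TR-FRET competition assay with His-tagged TEAD protein and a biotinylated lipid pocket probe, compound pre-incubated 30 min or 4 h at room temperature, displacement lowers signal.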
Chain of TEAD2 (Q15562 whole entry, species assumed): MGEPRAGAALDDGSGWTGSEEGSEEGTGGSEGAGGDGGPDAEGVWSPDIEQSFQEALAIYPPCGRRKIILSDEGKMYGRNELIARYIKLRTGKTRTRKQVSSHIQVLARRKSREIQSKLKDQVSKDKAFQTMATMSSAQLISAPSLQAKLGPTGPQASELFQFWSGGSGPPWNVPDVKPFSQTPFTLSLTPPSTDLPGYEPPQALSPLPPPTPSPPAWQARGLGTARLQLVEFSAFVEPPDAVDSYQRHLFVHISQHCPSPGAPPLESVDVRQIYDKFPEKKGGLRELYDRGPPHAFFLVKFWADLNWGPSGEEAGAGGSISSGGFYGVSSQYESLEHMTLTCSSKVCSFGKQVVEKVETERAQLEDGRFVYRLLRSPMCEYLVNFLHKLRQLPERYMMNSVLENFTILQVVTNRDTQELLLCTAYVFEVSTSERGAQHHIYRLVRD

Chain of TEAD4 (Q15561 whole entry, species assumed): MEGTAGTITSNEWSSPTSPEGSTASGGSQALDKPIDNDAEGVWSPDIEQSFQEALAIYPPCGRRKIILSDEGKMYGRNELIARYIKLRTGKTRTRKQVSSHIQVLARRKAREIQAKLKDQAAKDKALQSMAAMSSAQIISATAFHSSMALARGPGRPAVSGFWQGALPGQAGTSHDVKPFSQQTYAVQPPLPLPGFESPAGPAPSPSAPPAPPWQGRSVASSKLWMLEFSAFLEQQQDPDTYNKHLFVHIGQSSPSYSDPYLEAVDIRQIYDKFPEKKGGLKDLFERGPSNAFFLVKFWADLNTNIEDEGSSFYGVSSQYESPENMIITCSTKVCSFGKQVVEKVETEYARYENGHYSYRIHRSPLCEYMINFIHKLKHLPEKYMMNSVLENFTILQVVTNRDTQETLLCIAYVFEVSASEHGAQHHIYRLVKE
Chain of TEAD1 (P28347 whole entry, species assumed): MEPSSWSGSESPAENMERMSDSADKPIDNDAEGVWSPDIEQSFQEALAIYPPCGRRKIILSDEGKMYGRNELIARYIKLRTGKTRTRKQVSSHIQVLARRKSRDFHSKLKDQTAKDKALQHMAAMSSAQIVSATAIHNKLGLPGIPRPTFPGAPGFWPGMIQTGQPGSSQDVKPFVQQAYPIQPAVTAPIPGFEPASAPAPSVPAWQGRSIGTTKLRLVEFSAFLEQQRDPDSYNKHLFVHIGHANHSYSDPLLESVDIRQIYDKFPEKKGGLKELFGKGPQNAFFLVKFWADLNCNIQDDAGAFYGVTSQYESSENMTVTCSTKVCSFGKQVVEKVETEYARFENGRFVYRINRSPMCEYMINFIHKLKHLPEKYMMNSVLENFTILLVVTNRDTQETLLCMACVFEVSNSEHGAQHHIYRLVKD
Chain of TEAD3 (Q99594 whole entry, species assumed): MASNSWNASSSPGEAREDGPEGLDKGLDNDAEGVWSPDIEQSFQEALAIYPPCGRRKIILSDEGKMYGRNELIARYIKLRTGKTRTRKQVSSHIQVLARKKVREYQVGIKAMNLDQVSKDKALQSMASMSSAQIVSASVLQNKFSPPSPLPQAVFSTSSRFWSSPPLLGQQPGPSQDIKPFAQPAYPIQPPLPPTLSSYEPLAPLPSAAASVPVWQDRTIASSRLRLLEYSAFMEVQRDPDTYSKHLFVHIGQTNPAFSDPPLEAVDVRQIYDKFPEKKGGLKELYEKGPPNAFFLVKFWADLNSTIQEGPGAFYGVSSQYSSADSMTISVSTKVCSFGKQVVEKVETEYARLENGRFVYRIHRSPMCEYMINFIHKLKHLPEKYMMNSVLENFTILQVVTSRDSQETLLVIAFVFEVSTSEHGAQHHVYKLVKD
Method for TEAD2: His-tagged TEAD proteins are pre-incubated with TEAD project compounds for 30 minutes or 4 hours at room temperature. Biotinylated lipid pocket probes are then added to the TEAD/Compound mixture and incubated for 60 minutes at room temperature. The lipid pocket probe competes with the test compound for the TEAD lipid pocket until equilibrium is reached. After 60 minutes, Europium labelled anti-His (Perkin Elmer #AD0110) and XL665 labelled streptavidin (CIS Bio 610SAXAC) are added to the TEAD/test compound/lipid pocket mixture and incubated for 30 minutes or 4 hours. TR-FRET values are then measured using an EnVision multi-label plate reader (Perkin Elmer Cat #2104-0010A.) If the lipid pocket probe binds to TEAD as expected, a TR-FRET signal results from the proximity of anti-His Eu and XL665. If a TEAD lipid pocket binder such as binds and displaces the lipid pocket probe, the disruption of the TEAD:probe interaction results in a decrease in TR-FRET signal. The potency of compounds as TEAD lipid pocket binders is determined by IC50 value generated using a non-linear 4 parameter curve fit.
Method for TEAD3: His-tagged TEAD proteins are pre-incubated with TEAD project compounds for 30 minutes or 4 hours at room temperature. Biotinylated lipid pocket probes are then added to the TEAD/Compound mixture and incubated for 60 minutes at room temperature. The lipid pocket probe competes with the test compound for the TEAD lipid pocket until equilibrium is reached. After 60 minutes, Europium labelled anti-His (Perkin Elmer #AD0110) and XL665 labelled streptavidin (CIS Bio 610SAXAC) are added to the TEAD/test compound/lipid pocket mixture and incubated for 30 minutes or 4 hours. […] If a TEAD lipid pocket binder such as binds and displaces the lipid pocket probe, the disruption of the TEAD:probe interaction results in a decrease in TR-FRET signal. The potency of compounds as TEAD lipid pocket binders is determined by IC50 value generated using a non-linear 4 parameter curve fit.

For the compound `C=CC(=O)NCc1nn(-c2ccc(OC(F)(F)F)cc2)c2nccc(N3CCC[C@H](O)C3)c12` (stereo in doubt) [Compound 33, N-((4-(3-hydroxypiperidin-1-yl)-1-(4-(trifluoromethoxy)phenyl)-1H-pyrazolo[3,4-b]pyridin-3-yl)methyl)acrylamide], the half-inhibitory concentration (IC50) at TEAD1 was determined as 25 nM; at TEAD3 it was 17000 nM; at TEAD4, 11 nM; at TEAD2, 110 nM.

Regarding `C=CC(=O)NCc1nn(-c2ccc(OC(F)(F)F)cc2)c2nccc(N3CCC[C@@H](O)C3)c12` (stereo in doubt) [Compound 65, N-((4-(3-hydroxypiperidin-1-yl)-1-(4-(trifluoromethoxy)phenyl)-1H-pyrazolo[3,4-b]pyridin-3-yl)methyl)acrylamide], the IC50 at TEAD1 amounted to 150 nM; at TEAD3 it was 27000 nM; at TEAD4, 31 nM; on TEAD2, 99 nM.

Regarding `C=CC(=O)NCc1nn(-c2ccc(S(F)(F)(F)(F)F)cc2)c2ccccc12` [Compound 3, N-((1-(4-(pentafluoro-λ^6-sulfanyl)phenyl)-1H-indazol-3-yl)methyl)acrylamide], the IC50 at TEAD1 turned out to be 7 nM; on TEAD3, 210 nM; on TEAD4, 7.9 nM; at TEAD2, 250 nM.

Turning to `C=CC(=O)NCc1nn(-c2ccc(OC(F)(F)F)cc2)c2cccc(CO)c12` [Compound 4, N-((4-(hydroxymethyl)-1-(4-(trifluoromethoxy)phenyl)-1H-indazol-3-yl)methyl)acrylamide], the IC50 is 23 nM at TEAD1, 270 nM at TEAD3, 59 nM at TEAD4 and 140 nM on TEAD2.

With `C=CC(=O)NCc1nn(-c2ccc(S(F)(F)(F)(F)F)cc2)c2cccc(CO)c12` [Compound 5, N-((4-(hydroxymethyl)-1-(4-(pentafluoro-λ^6-sulfanyl)phenyl)-1H-indazol-3-yl)methyl)acrylamide], the IC50 stood at 17 nM at TEAD1, 270 nM at TEAD3, 37 nM at TEAD4 and 310 nM against TEAD2.

Turning to `C=CC(=O)NCc1nn(-c2ccc(S(F)(F)(F)(F)F)cc2)c2cccnc12` [Compound 12, N-((1-(4-(pentafluoro-λ^6-sulfanyl)phenyl)-1H-pyrazolo[4,3-b]pyridin-3-yl)methyl)acrylamide], the IC50 at TEAD1 turned out to be 48 nM; at TEAD3 it was 630 nM; on TEAD4, 43 nM; on TEAD2, 2800 nM.

In the case of `C=CC(=O)NCc1nn(-c2ccc(S(F)(F)(F)(F)F)cc2)c2ncccc12` [Compound 13, N-((1-(4-(pentafluoro-λ^6-sulfanyl)phenyl)-1H-pyrazolo[3,4-b]pyridin-3-yl)methyl)acrylamide], the IC50 on TEAD1 stood at 10 nM; on TEAD3, 230 nM; on TEAD4, 8.6 nM; against TEAD2 it was 330 nM.

With `C=CC(=O)NCc1nn(-c2ccc(S(F)(F)(F)(F)F)cc2)c2cccc(C#N)c12` [Compound 14, N-((4-cyano-1-(4-(pentafluoro-λ^6-sulfanyl)phenyl)-1H-indazol-3-yl)methyl)acrylamide], the IC50 at TEAD1 amounted to 84 nM; on TEAD3 it was 140 nM; on TEAD4, 33 nM; at TEAD2, 50000 nM.

As for `C=CC(=O)N(C)Cc1nn(-c2ccc(OC(F)(F)F)cc2)c2ccccc12` [Compound 18, N-methyl-N-((1-(4-(trifluoromethoxy)phenyl)-1H-indazol-3-yl)methyl)acrylamide], the 50% inhibitory concentration (IC50) turned out to be 6.8 nM at TEAD1, 100 nM at TEAD3, 3.4 nM on TEAD4 and 66 nM against TEAD2.

As for `C=C(F)C(=O)N1CC(c2nn(-c3ccc(OC(F)(F)F)cc3)c3nccc([C@@H](O)CO)c23)C1` [Compound 21, 1-[3-[4-[(1R)-1,2-dihydroxyethyl]-1-[4-(trifluoromethoxy)phenyl]pyrazolo[3,4-b]pyridin-3-yl]azetidin-1-yl]-2-fluoro-prop-2-en-1-one], the IC50 worked out at 21.5 nM at TEAD1, 38.5 nM at TEAD3, 13 nM on TEAD4 and 7.2 nM on TEAD2.

Turning to `C=CC(=O)NCc1nn(-c2ccc(OC(F)(F)F)cc2)c2nccc(NC(=O)CO)c12` [Compound 24, N-((4-(2-Hydroxyacetamido)-1-(4-(trifluoromethoxy)phenyl)-1H-pyrazolo[3,4-b]pyridin-3-yl)methyl)acrylamide], the IC50 on TEAD1 stood at 18.5 nM; on TEAD3, 405 nM; on TEAD4 it was 45.5 nM; on TEAD2, 130 nM.

As to `C=CC(=O)NCc1nn(-c2ccc(OC(F)(F)F)cc2)c2nccc(C(=O)NCCO)c12` [Compound 25, 3-(Acrylamidomethyl)-N-(2-hydroxyethyl)-1-(4-(trifluoromethoxy)phenyl)-1H-pyrazolo[3,4-b]pyridine-4-carboxamide], the IC50 at TEAD1 is 960 nM; at TEAD3, 3700 nM; on TEAD4, 95 nM; on TEAD2, 6000 nM.

Take `O=C(/C=C\Cl)NCc1nn(-c2ccc(OC(F)(F)F)cc2)c2nccc([C@@H](O)CO)c12` [Compound 26, (R,Z)-3-chloro-N-((4-(1,2-dihydroxyethyl)-1-(4-(trifluoromethoxy)phenyl)-1H-pyrazolo[3,4-b]pyridin-3-yl)methyl)acrylamide]: the IC50 on TEAD1 was found to be 140 nM; on TEAD3, 50000 nM; at TEAD4, 14 nM; at TEAD2, 160 nM.

For the compound `C=C(F)C(=O)N1CC(c2nn(-c3ccc(OC(F)(F)F)cc3)c3nccc(-c4cnn(CCO)c4)c23)C1` [Compound 28, 2-Fluoro-1-(3-(4-(1-(2-hydroxyethyl)-1H-pyrazol-4-yl)-1-(4-(trifluoromethoxy)phenyl)-1H-pyrazolo[3,4-b]pyridin-3-yl)azetidin-1-yl)prop-2-en-1-one], the IC50 at TEAD1 was determined as 23 nM; on TEAD3 it was 5700 nM; at TEAD4, 33 nM; on TEAD2, 220 nM.

Take `C=CC(=O)NCc1nn(-c2ccc(OC(F)(F)F)cc2)c2nccc(C(=O)NC)c12` [Compound 30, 3-(Acrylamidomethyl)-N-methyl-1-(4-(trifluoromethoxy)phenyl)-1H-pyrazolo[3,4-b]pyridine-4-carboxamide]: the IC50 amounted to 490 nM at TEAD1, 2600 nM at TEAD3, 180 nM at TEAD4 and 1500 nM against TEAD2.

With `C=C(F)C(=O)N1CC(c2nn(-c3ccc(OC(F)(F)F)cc3)c3nccc([C@H](O)CO)c23)C1` [Compound 31, (S)-1-(3-(4-(1,2-dihydroxyethyl)-1-(4-(trifluoromethoxy)phenyl)-1H-pyrazolo[3,4-b]pyridin-3-yl)azetidin-1-yl)-2-fluoroprop-2-en-1-one], the IC50 at TEAD1 turned out to be 35 nM; at TEAD3, 62 nM; at TEAD4, 25.5 nM; on TEAD2, 32 nM.

With `C=CC(=O)NCc1nn(-c2ccc(OC(F)(F)F)cc2)c2nccc(CO)c12` [Compound 32, N-((4-(Hydroxymethyl)-1-(4-(trifluoromethoxy)phenyl)-1H-pyrazolo[3,4-b]pyridin-3-yl)methyl)acrylamide], the concentration for half-maximal inhibition (IC50) at TEAD1 came to 13 nM; at TEAD3, 220 nM; at TEAD4, 25 nM; against TEAD2, 57 nM.
